Activity calls are given as the source filed them. The calls are words filed in the database; no cut-off is given here.
Columns and labels:
HepG2 [1] = assay: Induction of intracellular NO release in human HepG2 cells after 24 hrs by DAF-FM DA staining-based flow cytometry; assay type: functional, cell-based
HepG2 [2] = assay: Induction of apoptosis in human HepG2 cells assessed as incerase in Cyt c expression after 24 hrs by Western blotting analysis; assay type: functional, cell-based
HepG2 [3] = assay: Induction of apoptosis in human HepG2 cells assessed as ROS generation at 1.5 to 6 uM after 24 hrs by flow cytometry in presence of Tiron; assay type: functional, cell-based
HepG2 [4] = assay: Cytotoxicity against human HepG2 cells at 10 to 100 uM after 24 hrs by MTT assay; assay type: functional, cell-based
HepG2 [5] = assay: Cytotoxicity against human HepG2 cells after 24 hrs by MTT assay; assay type: functional, cell-based
HepG2 [6] = assay: Induction of apoptosis in human HepG2 cells assessed as increase in ERK phosphorylation at 3 uM by Western blotting analysis; assay type: functional, cell-based; conditions: TDE = time-dependent effect
HepG2 [7] = assay: Induction of apoptosis in human HepG2 cells assessed as increase in p38 phosphorylation after 24 hrs by Western blotting analysis; assay type: functional, cell-based
HepG2 [8] = assay: Induction of apoptosis in human HepG2 cells assessed as incerase in Bax expression after 24 hrs by Western blotting analysis; assay type: functional, cell-based
HepG2 [9] = assay: Induction of apoptosis in human HepG2 cells at 3 uM after 24 hrs by Western blotting analysis in presence of Tiron; assay type: functional, cell-based
HepG2 [10] = assay: Induction of apoptosis in human HepG2 cells assessed as incerase in Caspase 9 expression at 6 uM by Western blotting analysis; assay type: functional, cell-based; conditions: TDE = time-dependent effect
HepG2 [11] = assay: Induction of apoptosis in human HepG2 cells at 3 uM after 24 hrs by Western blotting analysis in presence of EA; assay type: functional, cell-based
HepG2 [12] = assay: Induction of apoptosis in human HepG2 cells assessed as loss of mitochondrial membrane potential at 1.5 to 6 uM after 24 hrs by JC-1 staining-based flow cytometry; assay type: functional, cell-based
HepG2 [13] = assay: Induction of apoptosis in human HepG2 cells assessed as incerase in Caspase 3 expression at 6 uM by Western blotting analysis; assay type: functional, cell-based; conditions: TDE = time-dependent effect
HepG2 [14] = assay: Induction of intracellular NO release in human HepG2 cells after 6 hrs by Griess assay; assay type: functional, cell-based
HepG2 [15] = assay: Induction of apoptosis in human HepG2 cells assessed as incerase in Cyt c expression at 6 uM by Western blotting analysis; assay type: functional, cell-based; conditions: TDE = time-dependent effect
L02 [16] = assay: Induction of intracellular NO release in human LO2 cells after 6 hrs by Griess assay; assay type: functional, cell-based
HepG2 [17] = assay: Cell cycle arrest in human HepG2 cells assessed as accumulation at G2/M phase after 24 hrs by flow cytometry; assay type: functional, cell-based
HepG2 [18] = assay: Induction of apoptosis in human HepG2 cells assessed as increase in p38 phosphorylation at 3 uM by Western blotting analysis; assay type: functional, cell-based; conditions: TDE = time-dependent effect
L02 [19] = assay: Induction of intracellular NO release in human LO2 cells at 6 uM by Griess assay; assay type: functional, cell-based; conditions: TDE = time-dependent effect
HepG2 [20] = assay: Cytotoxicity against human HepG2 cells at 5 t0 35 uM by MTT assay; assay type: functional, cell-based; conditions: TDE = time-dependent effect
HepG2 [21] = assay: Induction of intracellular NO release in human HepG2 cells at 1.5 to 6 uM after 24 hrs by Griess assay in presence of carboxy-PTIO; assay type: functional, cell-based
HepG2 [22] = assay: Induction of intracellular NO release in human HepG2 cells at 1.5 to 6 uM after 24 hrs by DAF-FM DA staining-based flow cytometry; assay type: functional, cell-based
HepG2 [23] = assay: Induction of apoptosis in human HepG2 cells assessed as reduction in Bcl2 expression after 24 hrs by Western blotting analysis; assay type: functional, cell-based
HepG2 [24] = assay: Induction of intracellular NO release in human HepG2 cells at 6 uM by Griess assay; assay type: functional, cell-based; conditions: TDE = time-dependent effect
HepG2 [25] = assay: Cell cycle arrest in human HepG2 cells assessed as decrease of cells at G0/G1 phase after 24 hrs by flow cytometry; assay type: functional, cell-based
HepG2 [26] = assay: Induction of apoptosis in human HepG2 cells assessed as increase in ERK phosphorylation after 24 hrs by Western blotting analysis; assay type: functional, cell-based
H22 [27] = assay: Antitumor activity against mouse H22 cells […] in mouse assessed as reduction in tumor growth at 38.3 umol/kg, ip after 14 days; assay type: functional, organism-based
H22 [28] = assay: Antitumor activity against mouse H22 cells […] in mouse assessed as reduction in tumor growth at 153.8 umol/kg, ip after 14 days; assay type: functional, organism-based
H22 [29] = assay: Antitumor activity against mouse H22 cells […] in ip dosed mouse assessed as reduction in tumor volume after 14 days relative to vehicle-treated control; assay type: functional, organism-based
HepG2 [30] = assay: Induction of intracellular NO release in human HepG2 cells at 1.5 to 6 uM after 24 hrs by Griess assay in presence of etacrynic acid; assay type: functional, cell-based
HepG2 [31] = assay: Induction of apoptosis in human HepG2 cells assessed as increase in ROS generation at 1.5 to 6 uM after 24 hrs by flow cytometry; assay type: functional, cell-based
HepG2 [32] = assay: Cytotoxicity against human HepG2 cells assessed as cell viability at 3 uM after 24 hrs by MTT assay in presence of hemoglobin; assay type: functional, cell-based
HepG2 [33] = assay: Induction of apoptosis in human HepG2 cells assessed as incerase in Caspase 3 expression after 24 hrs by Western blotting analysis; assay type: functional, cell-based
HepG2 [34] = assay: Induction of apoptosis in human HepG2 cells assessed as increase in JNK phosphorylation after 24 hrs by Western blotting analysis; assay type: functional, cell-based
HepG2 [35] = assay: Induction of apoptosis in human HepG2 cells assessed as loss of mitochondrial membrane potential after 24 hrs by JC-1 staining-based flow cytometry; assay type: functional, cell-based
H22 [36] = assay: Antitumor activity against mouse H22 cells […] in ip dosed mouse assessed as reduction in tumor weight after 14 days relative to vehicle-treated control; assay type: functional, organism-based
HepG2 [37] = assay: Induction of apoptosis in human HepG2 cells after 24 hrs by FITC-Annexin V/PI staining-based flow cytometry; assay type: functional, cell-based
HepG2 [38] = assay: Induction of apoptosis in human HepG2 cells assessed as increase in JNK phosphorylation at 3 uM by Western blotting analysis; assay type: functional, cell-based; conditions: TDE = time-dependent effect
Homo sapiens = organism: Homo sapiens; assay: Ratio of Kcat to Km for human GSTalpha
HepG2 [39] = assay: Induction of apoptosis in human HepG2 cells assessed as incerase in Bax expression at 6 uM by Western blotting analysis; assay type: functional, cell-based; conditions: TDE = time-dependent effect
HepG2 [40] = assay: Induction of intracellular NO release in human HepG2 cells at 30 uM after 6 hrs by Griess assay; assay type: functional, cell-based
HepG2 [41] = assay: Induction of intracellular NO release in human HepG2 cells at 1.5 to 6 uM after 24 hrs by Griess assay in presence of hemoglobin; assay type: functional, cell-based
HepG2 [42] = assay: Induction of apoptosis in human HepG2 cells assessed as incerase in Caspase 9 expression after 24 hrs by Western blotting analysis; assay type: functional, cell-based
HepG2 [43] = assay: Induction of apoptosis in human HepG2 cells assessed as reduction in Bcl2 expression at 6 uM by Western blotting analysis; assay type: functional, cell-based; conditions: TDE = time-dependent effect
HepG2 [44] = assay: Induction of apoptosis in human HepG2 cells at 3 uM after 24 hrs by Western blotting analysis in presence of carboxy-PTIO; assay type: functional, cell-based

## CN(CCO)/[N+]([O-])=N\Oc1cc(N2CCN(CC(=O)O[C@H]3CC[C@]4(C)[C@H]5CC=C6[C@@H]7CC(C)(C)CC[C@]7(C(=O)O[C@@H]7O[C@H](CO)[C@H](O)[C@H](O)[C@H]7O)CC[C@@]6(C)[C@]5(C)CC[C@H]4C3(C)C)CC2)c([N+](=O)[O-])cc1[N+](=O)[O-]
HepG2 [1]
  Activity: Dose-dependent effect
HepG2 [2]
  Activity: Dose-dependent effect
HepG2 [3]
  Activity: Active
HepG2 [4]
  Activity: Active
HepG2 [5]
  Activity: Dose-dependent effect
HepG2 [6]
  Activity: tde
HepG2 [7]
  Activity: Dose-dependent effect
HepG2 [8]
  Activity: Dose-dependent effect
HepG2 [9]
  Activity: Active
HepG2 [10]
  Activity: tde
HepG2 [11]
  Activity: Active
HepG2 [12]
  Activity: Active
HepG2 [13]
  Activity: tde
HepG2 [14]
  Activity: Dose-dependent effect
HepG2 [15]
  Activity: tde
L02 [16]
  Activity: Dose-dependent effect
HepG2 [17]
  Activity: Dose-dependent effect
HepG2 [18]
  Activity: tde
L02 [19]
  Activity: tde
HepG2 [20]
  Activity: tde
HepG2 [21]
  Activity: Active
HepG2 [22]
  Activity: Active
HepG2 [23]
  Activity: Dose-dependent effect
HepG2 [24]
  Activity: tde
HepG2 [25]
  Activity: Dose-dependent effect
HepG2 [26]
  Activity: Dose-dependent effect
H22 [27]
  Activity: Active
H22 [28]
  Activity: Active
H22 [29]
  Activity: Dose-dependent effect
HepG2 [30]
  Activity: Active
HepG2 [31]
  Activity: Active
HepG2 [32]
  Activity: Active
HepG2 [33]
  Activity: Dose-dependent effect
HepG2 [34]
  Activity: Dose-dependent effect
HepG2 [35]
  Activity: Dose-dependent effect
H22 [36]
  Activity: Dose-dependent effect
HepG2 [37]
  Activity: Dose-dependent effect
HepG2 [38]
  Activity: tde
Homo sapiens
  kcat/Km: 2730 M⁻¹ s⁻¹
HepG2 [39]
  Activity: tde
HepG2 [40]
  Activity: Active
HepG2 [41]
  Activity: Active
HepG2 [42]
  Activity: Dose-dependent effect
HepG2 [43]
  Activity: tde
HepG2 [44]
  Activity: Active

Source: ChEMBL document CHEMBL2396531, “Hybrid molecule from O2-(2,4-dinitrophenyl)diazeniumdiolate and oleanolic acid: a glutathione S-transferase π-activated nitric oxide prodrug with selective anti-human hepatocellular carcinoma activity and improved stability” (J Med Chem, 2013)
